Results from patent US11865359B2, “Tumor imaging with x-rays and other high energy sources using as contrast agents photon-emitting phosphors having therapeutic properties” (IMMUNOLIGHT, LLC., priority 2014, dated 2024).

How the values were obtained:
[1] = tested on: B16 cancer cells; assay: Clonogenic cell kill, visible phosphor mixtures under x-ray with and without psoralen (AMT); type: cell-based
Excerpt: Accordingly, combinations of more than two “visible” phosphors can be used in this invention. Discussed below are x-ray settings and mass ratios for clonogenic cell kill experiments. F1 refers to the insertion of an aluminum filter into the x-ray beam to act as a filter.
FIGS. 34A and 34B show cell kill comparisons (shown here as the number of surviving colonies) between B16 cancer cells treated with and without psoralen (i.e., AMT) with different phosphor mixtures, but otherwise being x-ray stimulated and containing the multiple phosphor combinations noted above. On these drawings, LDLE=low xRT dose, low energy; HDHE=high xRT dose, high energy.
On these drawings, LDLE=low xRT dose, low energy; HDHE=high xRT dose, high energy.

[2] = tested on: tumor; assay: Animal study, Rodent Syngeneic Model, tumor growth delay; type: in vivo, BALB/c female mice; details: 50-100 uL intra-tumoral injection three times per week, 100 ug phosphor combination and 5 uM psoralen (AMT), X-Ray 75kVp, 30 mA, 3 min; repeated study same result
Method: A phosphor system containing the following phosphor combination: LaPO4:Ce^3+, Tb^3+, 3Ca3(PO4)2.Ca(Fl, Cl)2:Sb^3+, Mn^2+, ZrO6-: Pr, Si, CaSiO3:Mn, Pb was used in an animal study based on a Rodent Syngeneic Model. In this animal study, a 50-100 uL intra-tumoral injection three times per week using 100 ug phosphor and 5 uM psoralen (AMT) and exposed to X-Ray dose of 75kVp using 30 mA for a duration of 3 min. The groups of mice in this study consisted of eight BALB/c female mice.

[3] = clinical use; cited from earlier work
[4] = tested on: cells; details: cells kept in the dark compared to those exposed to light; cited from earlier work
[5] = tested on: sarcoma cell line KP1619; assay: Annexin V flow cytometry apoptosis assay, 1Gy 80kVp x-ray; details: psoralen, phosphor and x-ray present
[6] = tested on: sarcoma cell line KP1408; assay: as above; details: psoralen, phosphor and x-ray present

## Cc1oc2c(C)c3oc(=O)cc(C)c3cc2c1CN [AMT]
[1]; Red/Yellow/Green and Flamingo/Yellow/Green phosphor mixtures, x-ray stimulated, FIGS. 34A and 34B
  cell kill (surviving colonies) with versus without psoralen: improved cell kill
[1]; flamingo, yellow, green FYG phosphor combination, FIG. 36
  cell kill with versus without psoralen: pronounced cell kill
[2]
  tumor growth versus saline treated group: tumor growth delay

## Oc1cccc(-c2c3nc(c(-c4cccc(O)c4)c4ccc([nH]4)c(-c4cccc(O)c4)c4nc(c(-c5cccc(O)c5)c5ccc2[nH]5)CC4)C=C3)c1 [Foscan, Tetra (m-hydroxyphenyl) chlorin]
[3]
  duration of skin photosensitivity: approximately 2 weeks

## NCCN.[Cl][Pt]([Cl])([I])[I] [[PtCl2I2(en)]]
[4]
  cytotoxicity, dark compared to light: no difference in cytotoxicity

## O=c1ccc2cc3ccoc3cc2o1 [psoralen]
[1]; higher kVp x-ray conditions, FIGS. 35A and 35B
  cell kill with versus without psoralen: does not show an increased kill
[5]
  apoptosis: high apoptosis
[6]
  apoptosis: high apoptosis
